Reference: patent publication US8883415B2, “Aza-benzazolium containing cyanine dyes” (Life Technologies Corporation, priority 1999, dated 2014)
“Also recorded” adds a separate entry of the source.

How the values were obtained:
bovine serum albumin = bovine serum albumin (Bos taurus, UniProt P02769); test: Detecting proteins in solution; type: binding; details: 2 micromolar dye, 0.05% SDS; either 10 minutes at 90° C. or 5-60 minutes at room temperature
Protocol: Compound 51 and Compound 44 are dissolved in DMSO at 1-10 mM and then diluted into 10 mM Tris-HCl, 1 mM EDTA, pH 7.5, containing 0.05% sodium dodecyl sulfate, to a final concentration of 2 micromolar. This dye solution is combined with samples containing bovine serum albumin at 100 ng/mL to 10 micrograms/mL. Samples are optionally incubated for 10 minutes at 90° C. and then cooled to room temperature, or are incubated for 5-60 minutes at room temperature. Fluorescence is measured using a fluorescence microplate reader with excitation at 540 nm and emission at 590 nm for Compound 44 and with excitation at 600 nm and emission at 670 nm for Compound 51. The fluorescence signal obtained from Compound 44 or 51 in buffer alone (control) is subtracted from the fluorescence recorded for the protein-containing samples in order to determine the intensity of the signal that is due to the presence of protein. Protein concentrations are then determined by comparison of the signal intensity thus obtained with the signals obtained using a dilution series of known concentration prepared using either the same protein or a protein standard, such as bovine serum albumin. The sensitivity limit for either dye under either condition is about 100 ng/mL bovine serum albumin (FIGS. 3 and 4).

[1] = test system: 18-base oligodeoxynucleotide sequencing primer; test: Detecting oligonucleotides in solution; type: binding; details: Excitation 540 nm/Emission 570 nm
Protocol: Selected dyes of the invention are dissolved in DMSO at 1-10 micromolar concentration, then diluted into 10 mM Tris-HCl, 1 mM EDTA, pH 7.5 to a final optical density of 0.1 or 0.01 at 530 nm or 540 nm. The resulting dye solutions are combined with an equal volume of an 18-base oligodeoxynucleotide sequencing primer solution at concentrations of 0.1 ng/mL to 1 microgram/mL in the same buffer. The resulting mixture is mixed gently and incubated for 5-60 minutes at room temperature, protected from light, and the sample fluorescence is measured in a fluorescence microplate reader.

[2] = test system: Escherichia coli ribosomal RNA; test: Detecting RNA in solution; type: binding; details: Excitation 540 nm/Emission 570 nm
Protocol: Selected dyes of the invention are dissolved in DMSO at 1-10 micromolar concentration, then diluted into 10 mM Tris-HCl, 1 mM EDTA, pH 7.5 to a final optical density of 0.1 or 0.01 at 530 nm or 540 nm. These dye solutions are combined with an equal volume of Escherichia coli ribosomal RNA at concentrations ranging from 0.25 ng/mL to 1 microgram/mL in microplate wells. The resulting mixtures are mixed gently and incubated for 5-60 minutes at room temperature, protected from light, and the sample fluorescence is measured.

proteins = test: Detection of proteins in SDS-polyacrylamide gels; type: binding; details: 1-3 μM dye in 7.5% acetic acid
Protocol: The pure protein or mixture of proteins of interest is prepared in Loading Buffer (50 mM Tris-HCl, pH 6.8, 2% SDS, 10% glycerol, and 0.015% bromophenol blue). Dithiothreitol is added to each sample, to a final concentration of 0.1 M. The samples are heated for 4-5 minutes at 90-95 °C and loaded onto a 15% Tris-glycine polyacrylamide mini- or full-sized gel containing 0.05%-0.1% SDS, with a 4% stacking gel. The gel is electrophoresed under standard conditions, in a standard Tris-glycine buffer containing 0.05%-0.1% SDS. The resulting gel is transferred to a small staining dish containing a 1-3 μM solution of Compound 25 in 7.5% acetic acid (in water). The staining solution is then covered with foil to protect it from room light and gently agitated for 45 minutes-1 hour. […] The gel is then removed from the staining dish, rinsed briefly in 7.5% acetic acid and transferred directly to a UV-transilluminator. The gel, with the stained protein bands is photographed using 300 nm transillumination and black and white POLAROID 667 print film with a Wratten 9 gelatin filter. […] Proteins appear as white bands on a grey to black background in the POLAROID photograph.

[3] = test system: double-stranded bacteriophage λ cl857 DNA that is digested with HindIII restriction endonuclease; test: Detecting nucleic acids in gels; type: binding; details: 1 micromolar dye
Protocol: DNA samples are loaded onto agarose or polyacrylamide gels and electrophoresed using standard conditions. Selected dyes of the invention are dissolved in DMSO at a concentration of 1-10 micromolar and diluted into 0.5×TBE buffer to a final concentration of 1 micromolar dye. Gels are incubated for 20-90 minutes in this staining solution, with gentle agitation, at room temperature, protected from light. Nucleic acids are visualized by transillumination at 300 nm, followed by direct visual detection or photography using Polaroid black-and-white print film. Nucleic acids are alternatively visualized by scanning using a FMBIO II laser scanner with a 532 nm frequency-doubled YAG laser source or a charge-coupled device camera system coupled with an ultraviolet (300 nm) light source, or a visible light transilluminator.

[4] = test system: double-stranded bacteriophage λ cl857 DNA that is digested with HindIII restriction endonuclease; test: Detecting nucleic acids in gels; type: binding; details: POLAROID 667 B&W film; FOTODYNE 254 nm epi.; 1 micromolar dye
double-stranded DNA [5] = test: Detecting double-stranded DNA in solution (fluorescence microplate reader); type: binding
Protocol: Samples containing 0.1 ng/mL to 1 microgram/mL double-stranded DNA are prepared in 10 mM Tris-HCl, 1 mM EDTA, pH 7.5. The selected dye of the invention is dissolved in DMSO at a concentration of 1-10 mM and then diluted into the same buffer at a concentration sufficient to achieve final optical densities of 0.1 and 0.01 at 500 nm, 530 nm, 540 nm or 560 nm. Equal volumes (100 microliters each) of DNA sample solution and dye solution at each concentration are combined and mixed gently at room temperature in a microplate well.
Samples are allowed to equilibrate for 5-60 minutes, protected from light, and the fluorescence of the sample is measured using a fluorescence microplate reader. DNA concentration is determined by comparison of the sample fluorescence with a standard curve obtained with that dye for each dye concentration. The sensitivity limit of several dyes in this assay is shown (Table 5).

DNA = test: Excitation and emission wavelengths when associated with DNA; type: physicochemical
[6] = test system: Jurkat human T-cell leukemia cells; test: Detection of apoptosis by flow cytometry; type: cell-based; details: 30 minutes on ice, 488 nm excitation
Protocol: A 1 mM solution of Compound 27 in DMSO is prepared. Jurkat human T-cell leukemia cells are treated with 10 μM camptothecin to induce apoptosis. A sample of the cells (1×10^8 cells/mL) is incubated with enough of the Compound 27 stock solution to give a final dye concentration of 0.1 μM, and sufficient propidium iodide to give a final concentration of 1.5 μM. After incubating for 30 minutes on ice, the cell samples are analyzed on a FacsVantage flow cytometer using 488-argon laser excitation, with emission at 530/30 and 675/20. Apoptotic cells are compared to control cells that were incubated with the same final concentration of DMSO used in the staining solution.

double-stranded DNA [7] = test: Detecting double-stranded DNA in the presence of single-stranded DNA; type: binding; details: nucleic acids 2 micrograms/mL; dye 1 micromolar; excitation 540 nm, emission 570 nm
Protocol: Samples containing nucleic acids at a concentration of 2 micrograms/mL are combined with Compound 16, Compound 22, or Compound 24 at a final dye concentration of 1 micromolar in 10 mM Tris-HCl, 1 mM EDTA, pH 7.5, and mixed gently. The resulting mixture is allowed to incubate for 5-60 minutes at room temperature, protected from light, and sample fluorescence is measured using a fluorescence microplate reader, with excitation at 540 nm and emission at 570 nm. […] If, however, the dye concentration is reduced relative to the concentration of single-stranded nucleic acids, the fluorescence upon binding those nucleic acids increases relative to that of the double-stranded DNA-dye complex. Thus the assay is always performed in sufficient dye excess.

[8] = BOEHRINGER MANNHEIM LUMIIMAGER CCD, 300 nm trans., 520 nm em.
[9] = BOEHRINGER MANNHEIM LUMIIMAGER CCD, 300 nm trans., 545 nm em
[10] = HITACHI FMBIO II laser scanner, 532 nm freq.-doubled YAG laser
[11] = POLAROID 667 B&W film, DARK READER visible light box
[12] = POLAROID 667 B&W film, FOTODYNE 300 nm trans.
[13] = Excitation 540 nm/Emission 570 nm
[14] = Excitation 530 nm/Emission 560 nm

Sequence of bovine serum albumin (P02769 25-607): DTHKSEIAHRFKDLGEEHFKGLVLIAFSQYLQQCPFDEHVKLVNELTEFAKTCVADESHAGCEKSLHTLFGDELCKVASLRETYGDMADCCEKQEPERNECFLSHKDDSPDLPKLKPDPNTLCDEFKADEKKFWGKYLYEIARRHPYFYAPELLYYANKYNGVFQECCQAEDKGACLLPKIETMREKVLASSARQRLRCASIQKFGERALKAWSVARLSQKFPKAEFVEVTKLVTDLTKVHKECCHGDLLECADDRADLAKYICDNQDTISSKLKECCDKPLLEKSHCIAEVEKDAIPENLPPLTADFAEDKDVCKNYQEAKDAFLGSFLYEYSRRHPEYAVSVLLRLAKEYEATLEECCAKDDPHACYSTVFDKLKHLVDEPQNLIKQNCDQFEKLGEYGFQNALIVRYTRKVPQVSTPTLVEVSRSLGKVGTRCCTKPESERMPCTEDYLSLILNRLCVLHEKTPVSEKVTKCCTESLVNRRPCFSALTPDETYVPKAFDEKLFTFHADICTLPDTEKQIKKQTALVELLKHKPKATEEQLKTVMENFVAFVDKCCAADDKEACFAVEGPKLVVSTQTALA

SMILES	Sensitivity for detecting double-stranded DNA in agarose gels [3, 8] [pg]	Sensitivity for detecting double-stranded DNA in agarose gels [3, 9] [pg]	Sensitivity for detecting double-stranded DNA in agarose gels [3, 10] [pg]	Sensitivity for detecting double-stranded DNA in agarose gels [3, 11] [pg]	Sensitivity for detecting double-stranded DNA in agarose gels [3, 12] [pg]	Sensitivity for detecting double-stranded DNA in agarose gels [4] [pg]	Sensitivity Limit, High dye concentration (0.1 OD) (double-stranded DNA [5]; [13]) [ng/mL]	Sensitivity Limit, Low dye concentration (0.01 OD) (double-stranded DNA [5]; [13]) [ng/mL]	Preferential fluorescent staining of double-stranded DNA in the presence of single-stranded DNA and RNA (double-stranded DNA [7])	further results
CCCCC1=C/C(=C\c2nc3c(cc(Br)c[n+]3C)s2)c2ccccc2N1c1ccccc1.[I-] [Compound 44]										Sensitivity limit for bovine serum albumin (bovine serum albumin): about 100 ng/mL
CC[N+](C)(CC)Cc1ccc(C2=C/C(=C\c3nc4c(ccc[n+]4C)o3)c3cc(OC)ccc3N2C)cc1 [Compound 25]	1700	100	25	240	120	120	<10	0.5		Sensitivity Limit, High dye concentration (0.1 OD) [1]: <10 ng/mL; Sensitivity Limit, Low dye concentration (0.01 OD) [1]: >10 ng/mL; Sensitivity Limit, High dye concentration (0.1 OD) [2]: 200 ng/mL; Sensitivity Limit, Low dye concentration (0.01 OD) [2]: 1.2 ng/mL; Visual appearance of stained protein bands (proteins; 300 nm transillumination): brightly fluorescent orange bands; Visibility of protein bands in stained gel (proteins; after 10 minutes): protein bands are readily apparent
CN1C=C/C(=C\C(=C\c2sc3ccccc3[n+]2C)c2ccccc2)c2ccccc21 [Compound 60]										Emission wavelength (DNA): 659 nm; Excitation wavelength (DNA): 642 nm
C[n+]1cccc2oc(/C=C3\C=CN(CCC[N+](C)(C)C)c4ccccc43)nc21 [Compound 27]										Differentiation of apoptotic and normal cells (plot of FL1 versus FL3) ([6]; 0.1 μM dye, 10 μM camptothecin-induced apoptosis): capable of differentiating between apoptotic and normal cells; Sensitivity Limit, High dye concentration (0.1 OD) (double-stranded DNA [5]; [14]): 20 ng/mL; Sensitivity Limit, Low dye concentration (0.01 OD) (double-stranded DNA [5]; [14]): 0.5 ng/mL
CC[N+](C)(CC)CCC[n+]1c(-c2ccccc2)c2cc(N)ccc2c2ccc(N)cc21.[I-].[I-] [propidium iodide, reference compound]										Cells stained ([6]; 1.5 μM): Late stage apoptotic and necrotic cells are stained
CC[N+](C)(CC)Cc1ccc(C2=C/C(=C\c3nc4c(ccc[n+]4C)o3)c3ccccc3N2C)cc1 [Compound 24]	420	50	5	120	60	30	10	5.0	detected preferentially	
CN1C(c2ccccc2)=C/C(=C\c2nc3c(ccc[n+]3C)o2)c2ccccc21.[I-] [Compound 16]	210	50	25	240	120	30	<10	1.0	preferential fluorescent staining of double-stranded DNA; also recorded: detected preferentially	
CCN(CC)Cc1ccc(C2=C/C(=C\c3nc4c(ccc[n+]4C)o3)c3ccccc3N2C)cc1.[I-] [Compound 22]	830	50	7	60	120	30	10	1.0	preferential fluorescent staining of double-stranded DNA; also recorded: detected preferentially	
CN1C(c2ccccc2)=C/C(=C\C=C\c2nc3c(ccc[n+]3C)o2)c2ccccc21.[I-] [Compound 51]										Sensitivity limit for bovine serum albumin (bovine serum albumin): about 100 ng/mL
